Patent publication US20140155609A9, “QUINOLINE DERIVATIVE COMPOUND, METHOD FOR PREPARING SAME, AND PHARMACEUTICAL COMPOSITION CONTAINING SAME” (Dong-A ST Co., Ltd., priority 2010, published 2014)

Experiments:
human 5-HT1A receptor = target: T1, human 5-HT1A receptor (Homo sapiens, UniProt P08908); assay: Assay for affinity for serotonin-1A receptor (3H 8-OH-DPAT competitive binding); conditions: 10 μM compound; 1.5 nM 3[H] 8-OH-DPAT; CHO cells transfected with human 5-HT1A receptor; mean of two experiments
T1 construct: expressed in transfected cells; host or cells: CHO (Chinese hamster ovary) cells
T1 sequence (P08908 1-422): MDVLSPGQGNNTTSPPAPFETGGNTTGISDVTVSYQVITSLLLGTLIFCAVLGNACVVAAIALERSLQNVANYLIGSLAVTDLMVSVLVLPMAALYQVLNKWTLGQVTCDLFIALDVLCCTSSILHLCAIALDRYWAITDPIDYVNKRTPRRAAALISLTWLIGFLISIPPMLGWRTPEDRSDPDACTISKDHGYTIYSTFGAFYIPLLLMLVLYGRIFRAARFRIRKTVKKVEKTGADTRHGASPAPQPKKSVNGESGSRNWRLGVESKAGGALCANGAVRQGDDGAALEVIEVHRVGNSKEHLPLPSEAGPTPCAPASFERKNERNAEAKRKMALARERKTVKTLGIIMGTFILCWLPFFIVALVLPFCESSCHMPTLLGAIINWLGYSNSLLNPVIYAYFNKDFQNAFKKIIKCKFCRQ
Protocol: Compounds of the present invention were examined for affinity for the serotonin-1A receptor which can increase gastric accommodation in response to an agonist.
In tris-HCl buffer (50 mM Tris-HCl, pH 7.4, 120 mM NaCl, 5 mM KCl, 2 mM CaCl2, 1 mM MgCl2), 150 μg of Chinese hamster ovary (CHO) cells transfected with a human […] 5-HT1A receptor were incubated at 37° C. for 1.5 hrs with 1.5 nM of ^3[H] 8-OH-DPAT and 10 μM of the compound of interest of Example. After completion of the incubation, the incubation mixture was filtered through Whatman GF/B filter (unifilter-96, Lot: 6005177, PerkinElmer) to separate ligand-bound receptors. These bound receptors were washed three times with 5 mL of a Tris-HCl buffer. Then, 10 mL of a scintillation cocktail (Lot: 03999, Fluka) was added, and reacted for 16 hrs or longer with to measure radiation activity using a beta-counter (Packcard) in order to calculate the quantity of ^3[H] 8-OH-DPAT bound to the receptor.
Meanwhile, 10 μM of metergoline was also incubated in the presence of 1.5 nM of ^3[H] 8-OH-DPAT to determine a nonspecific binding value. The experiment was independently carried out twice, and receptor affinity was calculated using the following Equation 2. […]

serotonin-1B receptor = target: T2, serotonin-1B receptor (Rattus norvegicus, UniProt P28564); assay: Assay for affinity for serotonin-1B receptor (125I cyanopindolol binding, rat cerebral cortex membranes); conditions: 10 μM compound, mean of two experiments
T2 construct: cell membranes of the cerebral cortex excised from male Winstar rats; from tissue; host or cells: rat cerebral cortex membranes (male Wistar rats)
T2 sequence (P28564 whole entry): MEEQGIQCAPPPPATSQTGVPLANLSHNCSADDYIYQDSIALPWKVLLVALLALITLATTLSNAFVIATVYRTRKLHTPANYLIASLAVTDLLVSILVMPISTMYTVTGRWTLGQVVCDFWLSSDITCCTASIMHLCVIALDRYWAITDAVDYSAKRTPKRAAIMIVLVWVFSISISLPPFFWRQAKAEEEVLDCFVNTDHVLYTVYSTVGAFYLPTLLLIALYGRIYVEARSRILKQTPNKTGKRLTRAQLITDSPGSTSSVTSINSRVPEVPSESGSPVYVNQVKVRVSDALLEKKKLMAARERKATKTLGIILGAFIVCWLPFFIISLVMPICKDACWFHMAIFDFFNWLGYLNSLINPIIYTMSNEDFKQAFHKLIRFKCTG
Protocol: Compounds of the present invention were examined for affinity for the serotonin-1B receptor which can exert a relaxation effect on the stomach and relieve impaired gastric accommodation of functional dyspepsia patients in response to an agonist.
In a Tris-HCl buffer (50 mM Tris-HCl, pH 7.4, 120 mM NaCl, 5 mM KCl, 2 mM CaCl2, 1 mM MgCl2), 4 mg of cell membranes of the cerebral cortex excised from male Winstar rats, each weighing 175±25 g, was incubated at 37° C. for 1.5 hrs with […] of ^125[I] cyanopindolol (PerkinElmer, 100 μCi) and 10 μM of the compound of interest of the present invention per well. After completion of the incubation, the incubation mixture was filtered through Whatman GF/B filter (unifilter-96, Lot: 6005177, PerkinElmer) to separate ligand-bound receptors. These bound receptors were washed three times with 5 mL of a Tris-HCl buffer. Then, 10 mL of a scintillation cocktail (Lot: 03999, Fluka) was added, and reacted for 16 hrs or to measure a radiation activity using a beta-counter (Packcard) in order to calculate the quantity of ^125[I] cyanopindolol bound to the receptor.
Meanwhile, 10 μM of serotonin (H9523, Sigma) was incubated in the presence of […] of ^125[I] cyanopindolol to determine a nonspecific binding value. The experiment was independently carried out twice, and receptor affinity was calculated using the following Equation 3. […]

[1] = target: T3, human dopamine D2 receptor (Homo sapiens, UniProt P14416); assay: Assay for affinity for dopamine receptor (3H-spiperone competitive binding); conditions: 10 μM compound; 0.16 nM tritium spiperone; CHO cells transfected with human dopamine D2; mean of two experiments
T3 construct: expressed in transfected cells; host or cells: CHO (Chinese hamster ovary) cells
T3 sequence (P14416 whole entry): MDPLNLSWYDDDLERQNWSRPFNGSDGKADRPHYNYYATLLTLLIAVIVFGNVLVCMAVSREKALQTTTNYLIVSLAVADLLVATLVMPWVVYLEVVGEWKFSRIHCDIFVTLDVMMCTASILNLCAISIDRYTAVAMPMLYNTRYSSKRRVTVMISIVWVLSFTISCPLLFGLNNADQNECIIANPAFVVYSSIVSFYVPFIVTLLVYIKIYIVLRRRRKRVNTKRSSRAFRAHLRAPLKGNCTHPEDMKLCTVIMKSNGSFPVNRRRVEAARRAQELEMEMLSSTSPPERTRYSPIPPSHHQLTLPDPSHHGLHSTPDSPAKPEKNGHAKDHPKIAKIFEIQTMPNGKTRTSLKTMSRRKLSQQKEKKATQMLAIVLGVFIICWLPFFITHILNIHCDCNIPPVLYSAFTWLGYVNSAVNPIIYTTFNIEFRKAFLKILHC
Protocol: Affinity of the compounds of the present invention for the dopamine-D2 receptor, which is found in the wall of the gastric tract of mammals and inhibits gastric motility, was determined by measuring competitive inhibition against the binding to the receptor of a radio-labeled ligand which is known for its affinity for the receptor. In this regard, the experiment was performed according to the method described in [Heys G et al. Mol. Endocrinol. 6:920, 1992] and [Grandy D K et al. Proc Natl Acad Sci USA. 86:9762, 1989].
In tris-HCl buffer ([…], pH 7.4, 120 mM NaCl, 5 mM KCl, 2 mM CaCl2, 1 mM MgCl2) 150 μg of Chinese hamster ovary (CHO) cells transfected with a human dopamine D2, gene were incubated at 25° C. for 120 min with 0.16 nM of tritium Spiperone (^3[H] Spiperon [NEN, 250 μCi]) and 10 μM of the compound of interest. After completion of the incubation, the incubation mixture was filtered through Whatman GF/B filter (unifilter-96 Lot: 6005177, PerkinElmer) to separate ligand-bound receptors. […] Then, 10 mL of a scintillation cocktail (Lot: 03999, Fluka) was added and reacted for 16 hrs or longer to measure radiation activity using a beta-counter (Packcard) in order to calculate the quantity of tritium spiperone bound to the receptor. […] The experiment was independently carried out twice, and receptor affinity was calculated using the following Equation 1. […]

normal rat = assay: Gastric emptying effect on normal rat; type: in vivo, Sprague-Dawley rats
Protocol: Gastric emptying activity of the compounds of the present invention was examined in the following experiment.
Sprague-Dawley rats with an age of 6 weeks were divided into groups according to weight, and acclimated for one week at a temperature of 22˜24° C. and a humidity of 60-80% while a standard diet and water were provided. Thereafter, they were starved for 24 hrs before an experiment while water was provided. From 3 hrs before the experiment, no more water was provided. A 3% hydroxy propyl methyl cellulose solution containing the compound of Example in an amount of 10 μg/kg was orally administered at a dose of 1 mL to each rat.
After 45 min, a semi-solid test meal (0.05% phenol red solution containing 1.5% MC), prepared by mashing feeds in water, was orally administered in an amount of 2 mL to each rat. After 35 min, the SD rats were killed, and the stomach was excised, and weighed carefully lest the gut content was leaked. Subsequently, the stomach was washed with distilled water to remove the gut content, dried, and weighed again, in order to calculate the weight of the semi-solid test meal left in the gut. In Table 4, the control was orally administered with 1 mL of 3% […].
Gastric Emptying(%)=[1−(weight of semi-solid test meal left in gut/weight of semi-solid test meal at 0-time)]×100 [Equation 4] […]

CCOC(=O)CCC(=O)N1CCc2cc(OC)c(OC)c3c2[C@@H]1Cc1cc(OC)c(OC)cc1-3 [Example 1, (S)-4-oxo-4-(1,2,9,10-tetramethoxy-4,5,6a,7-tetrahydro-dibenzo[de,g]quinoline-6-yl)-butyric acid ethyl ester]
Affinity (%) (human 5-HT1A receptor): 41% | Affinity (%) (serotonin-1B receptor): 92% | Affinity (%) [1]: 46% | Gastric Emptying (%) (normal rat; dose 10 μg/kg oral, 45 min before semi-solid test meal, stomach excised 35 min after meal, control 24.3): 47.8% | increase of gastric emptying compared to the control (normal rat; normal rats, oral dose 10 μg/kg): roughly two-fold
